Source: patent US9730938B2, “Bruton's tyrosine kinase inhibitor combinations and uses thereof” (Pharmacyclics LLC, priority 2014, dated 2017)

Tests used:
Type in all cases: cell-based
[1] = system: Jeko cells; test: 3-day CellTiter Glow combination study in Jeko cells with wild-type or mutant CARD11; conditions: FIG. 6
Description: Jeko cells, a MCL cell line, and OCI-Ly3, a DLBCL cell line, were used for this experiment.
In summary, 10,000 cells were plated into 96-well plates and treated with different concentrations of inhibitors. 3 days later, CellTiter Glow reagent was added into the wells and the luminescent signals were measured.

[2] = system: TMD8; test: Combined drug treatment cell viability, CellTiter-Glo assay (Example 2); conditions: 3 days
[3] = system: OCI-LY-10; test: as above; conditions: 3 days
[4] = system: OCI-LY-3; test: as above; conditions: 3 days
[5] = system: HBL-1; test: as above; conditions: 3 days
[6] = system: U2932; test: as above; conditions: 3 days
[7] = system: SU-DHL-2; test: as above; conditions: 3 days
[8] = ibrutinib 0 nM, JAK3 10 μM / MCL-1 3 μM alone
[9] = ibrutinib 0.0512 nM, JAK3 10 μM / MCL-1 3 μM / medium alone
[10] = ibrutinib 0.256 nM, JAK3 10 μM / MCL-1 3 μM / medium alone
[11] = ibrutinib 1.28 nM, JAK3 10 μM / MCL-1 3 μM / medium alone
[12] = ibrutinib 6.4 nM, JAK3 10 μM / MCL-1 3 μM / medium alone
[13] = ibrutinib 32 nM, JAK3 10 μM / MCL-1 3 μM / medium alone
[14] = ibrutinib 160 nM, JAK3 10 μM / MCL-1 3 μM / medium alone
[15] = ibrutinib 800 nM, JAK3 10 μM / MCL-1 3 μM / medium alone
[16] = ibrutinib 20000 nM, JAK3 10 μM / MCL-1 3 μM / medium alone
[17] = ibrutinib 40000 nM, JAK3 10 μM / MCL-1 3 μM / medium alone

## CC(C)C[C@H](NC(=O)[C@H](Cc1ccccc1)NC(=O)c1cnccn1)B(O)O [Velcade]
[1]
  sensitization of Jeko cells containing the mutant CARD11 to ibrutinib treatment: sensitized

## C[C@@H]1CCN(C(=O)CC#N)C[C@@H]1N(C)c1ncnc2[nH]ccc12 [tofacitinib]
[2]; [8]
  luminescence (CellTiter-Glo): 42085.03
[2]; [9]
  luminescence (CellTiter-Glo): 22758.56
[2]; [10]
  luminescence (CellTiter-Glo): 22844.02
[2]; [11]
  luminescence (CellTiter-Glo): 23722.74
[2]; [12]
  luminescence (CellTiter-Glo): 22806.63
[2]; [13]
  luminescence (CellTiter-Glo): 23770.82
[2]; [14]
  luminescence (CellTiter-Glo): 23674.67
[2]; [15]
  luminescence (CellTiter-Glo): 21620.76
[2]; [16]
  luminescence (CellTiter-Glo): 6463.53
[2]; [17]
  luminescence (CellTiter-Glo): 19962.15
[3]; [8]
  luminescence (CellTiter-Glo): 55820.26
[3]; [9]
  luminescence (CellTiter-Glo): 51855.78
[3]; [10]
  luminescence (CellTiter-Glo): 42984.83
[3]; [11]
  luminescence (CellTiter-Glo): 35330.40
[3]; [12]
  luminescence (CellTiter-Glo): 19547.86
[3]; [13]
  luminescence (CellTiter-Glo): 13432.93
[3]; [14]
  luminescence (CellTiter-Glo): 13583.65
[3]; [15]
  luminescence (CellTiter-Glo): 14159.61
[3]; [16]
  luminescence (CellTiter-Glo): 14383.00
[3]; [17]
  luminescence (CellTiter-Glo): 14751.73
[4]; [8]
  luminescence (CellTiter-Glo): 60068.93
[4]; [9]
  luminescence (CellTiter-Glo): 52005.22
[4]; [10]
  luminescence (CellTiter-Glo): 56590.84
[4]; [11]
  luminescence (CellTiter-Glo): 49371.84
[4]; [12]
  luminescence (CellTiter-Glo): 52737.31
[4]; [13]
  luminescence (CellTiter-Glo): 47894.25
[4]; [14]
  luminescence (CellTiter-Glo): 42659.67
[4]; [15]
  luminescence (CellTiter-Glo): 54193.44
[4]; [16]
  luminescence (CellTiter-Glo): 59782.00
[4]; [17]
  luminescence (CellTiter-Glo): 45217.97
[5]; [8]
  luminescence (CellTiter-Glo): 78088.40
[5]; [9]
  luminescence (CellTiter-Glo): 48007.16
[5]; [10]
  luminescence (CellTiter-Glo): 49532.94
[5]; [11]
  luminescence (CellTiter-Glo): 56756.95
[5]; [12]
  luminescence (CellTiter-Glo): 46403.61
[5]; [13]
  luminescence (CellTiter-Glo): 47226.84
[5]; [14]
  luminescence (CellTiter-Glo): 41745.82
[5]; [15]
  luminescence (CellTiter-Glo): 37551.94
[5]; [16]
  luminescence (CellTiter-Glo): 17614.87
[5]; [17]
  luminescence (CellTiter-Glo): 39380.73
[6]; [8]
  luminescence (CellTiter-Glo): 74370.91
[6]; [9]
  luminescence (CellTiter-Glo): 61632.23
[6]; [10]
  luminescence (CellTiter-Glo): 61314.09
[6]; [11]
  luminescence (CellTiter-Glo): 61987.79
[6]; [12]
  luminescence (CellTiter-Glo): 58424.16
[6]; [13]
  luminescence (CellTiter-Glo): 57921.57
[6]; [14]
  luminescence (CellTiter-Glo): 55595.72
[6]; [15]
  luminescence (CellTiter-Glo): 54213.58
[6]; [16]
  luminescence (CellTiter-Glo): 24327.81
[6]; [17]
  luminescence (CellTiter-Glo): 54924.70
[7]; [8]
  luminescence (CellTiter-Glo): 133588.4
[7]; [9]
  luminescence (CellTiter-Glo): 154568.4
[7]; [10]
  luminescence (CellTiter-Glo): 167037.0
[7]; [11]
  luminescence (CellTiter-Glo): 171896.5
[7]; [12]
  luminescence (CellTiter-Glo): 165146.8
[7]; [13]
  luminescence (CellTiter-Glo): 173773.3
[7]; [14]
  luminescence (CellTiter-Glo): 165414.5
[7]; [15]
  luminescence (CellTiter-Glo): 167444.0
[7]; [16]
  luminescence (CellTiter-Glo): 2706.8
[7]; [17]
  luminescence (CellTiter-Glo): 164389.1
